Assay results taken from US6964760B2, “Antimicrobial polypeptide, nucleic acid, and methods of use” (University of Florida Research Foundation, priority 1997, dated 2005).

Key:
Type in all cases: cell-based
S. mutans strains = assay: Overlay technique, panel of S. mutans strains; conditions: mutacin 1140 produced by a JH1140 strain
Experimental: (§1) Three drops of an overnight THB culture of the indicator strain were mixed with 3 ml of molten top agar and poured evenly over the surface of the plate. After an additional 24 hours of incubation, clear zones surrounding the test strain were measured.
(§2) The inhibitory factor inhibited 124 of 125 S. mutans strains tested. […] The following table summarizes the spectrum of activity found for the lantibiotic.

Gram positive organisms = assay: Overlay technique, Gram positive organisms; conditions: including Streptococcus mitts, Streptococcus pyogenes, Staphylococcus aureus, Actinomyces species
Experimental: as §1, §2

Gram-negative bacteria = assay: Overlay technique, Gram-negative bacteria
Experimental: as §1, §2

[1] = system: other strains of S. mutans; assay: Sterility of agar taken from clear zones; conditions: loopfuls of agar taken from clear zones were sterile

mutacin 1140
S. mutans strains inhibited of strains tested (S. mutans strains): 124 of 125 | Sensitivity of most Gram positive organisms to inhibitory activity (Gram positive organisms): sensitive | Inhibition of Gram-negative bacteria (Gram-negative bacteria): mostly resistant | Kind of effect on other strains of S. mutans [1]: bacteriocidal
